Results from patent US10745365B2, “Luminogenic and fluorogenic compounds and methods to detect molecules or conditions” (Promega Corporation, priority 2005, dated 2020).
Several values for one entry are separate records, joined by “and”; a condition that tells them apart may be missing. Equal values may be shown once. Each block holds one molecule with its values, some of them ahead of it.

Experiments:
[1] = molecular target: T1, QuantiLum Luciferase (firefly luciferase) (Photinus pyralis, UniProt P08659); experiment: Luminescence spectra of fluoroluciferins; format: biochemical; conditions: pH 7.4
T1 construct: purchased Promega Corporation El 70
T1 sequence (P08659 whole entry): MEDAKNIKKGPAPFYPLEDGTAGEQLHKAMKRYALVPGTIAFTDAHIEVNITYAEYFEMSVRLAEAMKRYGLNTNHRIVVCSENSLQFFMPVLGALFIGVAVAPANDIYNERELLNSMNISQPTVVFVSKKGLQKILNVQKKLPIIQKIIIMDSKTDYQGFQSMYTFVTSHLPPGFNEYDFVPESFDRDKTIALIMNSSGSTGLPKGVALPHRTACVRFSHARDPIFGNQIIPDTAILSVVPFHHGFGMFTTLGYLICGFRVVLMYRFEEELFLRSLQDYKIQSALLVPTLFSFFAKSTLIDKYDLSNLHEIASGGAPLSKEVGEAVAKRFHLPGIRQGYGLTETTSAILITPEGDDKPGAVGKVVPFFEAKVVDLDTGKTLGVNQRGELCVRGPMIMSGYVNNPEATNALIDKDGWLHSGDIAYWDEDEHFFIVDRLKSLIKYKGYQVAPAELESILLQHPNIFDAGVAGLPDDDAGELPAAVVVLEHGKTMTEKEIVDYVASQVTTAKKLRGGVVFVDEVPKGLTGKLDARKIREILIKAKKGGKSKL
Method: All compounds except fluoroluciferin and ATP were purchased from Sigma Chemical. ATP was purchased from Amersham/Invitrogen.
Spectra were measured using 0.5s integration with 1 nm increments on a Spex Fluorolog.

[2] = molecular target: T1, QuantiLum Luciferase (firefly luciferase); experiment: pH titration of 7′-fluoroluciferin luciferase reaction; format: biochemical
[3] = molecular target: T1, QuantiLum Luciferase (firefly luciferase); experiment: ATP titration of luciferase reactions with luciferin and fluoroluciferins; format: biochemical
Method: AU compounds except 5’-fluoroluciferin and DTT were purchased from Sigma Chemical. To some of this reagent 5 mM ATP (Amersham/Invitrogen) was added, then serially diluted by half-logs to 0.05 mM. Reactions were initiated by adding equal volumes (0.1 ml) of reagent and DMEM medium (Gibco/Invitrogen) containing 0.1% Prionex® (Pentapharm) and 1.4×10-5 mg/ml QuantiLum™ Luciferase (Promega Corporation).
For ATP titrations for 7′-fluoroluciferin, reagent was created containing 200 mM HEPES, 200 mM PIPES, 1 mM CDTA, 0.5% Tergitol NP-9, 0.03% Benzyl dodecyldimethyl ammonium bromide, 30 mM thiourea, 10 mM magnesium sulfate, and 0.15 mM 7′-fluoroluciferin. This solution was separated into 3 parts and pH of the reagents were 7.4, 7.2 and 6.7. To some of this reagent, 10 mM ATP (Amersham/Invitrogen) was added. The ATP was serially diluted by quarter-logs from 10 mM to 0.32 mM.
Reactions were initiated by adding equal volumes (0.03 ml) of reagent and DMEM medium (Gibco/Invitrogen) containing 0.1% Prionex® (Pentapharm) and 1.4×10-5 mg/ml QuantiLum™ Luciferase (Promega Corporation).
Luminescence was measured for 0.5 seconds per well using Berthold Orion luminometer.

[4] = molecular target: T2, human recombinant flavin-containing monooxygenase 3 (FMO 3) (Homo sapiens, UniProt P31513); experiment: Two-step luminescent FMO 3 assay; format: biochemical; conditions: fit of Table 33
T2 construct: purchased Sigma Chemical Company F-5053; host or cells: baculovirus infected insect cells (microsomes)
T2 sequence (P31513 1-532): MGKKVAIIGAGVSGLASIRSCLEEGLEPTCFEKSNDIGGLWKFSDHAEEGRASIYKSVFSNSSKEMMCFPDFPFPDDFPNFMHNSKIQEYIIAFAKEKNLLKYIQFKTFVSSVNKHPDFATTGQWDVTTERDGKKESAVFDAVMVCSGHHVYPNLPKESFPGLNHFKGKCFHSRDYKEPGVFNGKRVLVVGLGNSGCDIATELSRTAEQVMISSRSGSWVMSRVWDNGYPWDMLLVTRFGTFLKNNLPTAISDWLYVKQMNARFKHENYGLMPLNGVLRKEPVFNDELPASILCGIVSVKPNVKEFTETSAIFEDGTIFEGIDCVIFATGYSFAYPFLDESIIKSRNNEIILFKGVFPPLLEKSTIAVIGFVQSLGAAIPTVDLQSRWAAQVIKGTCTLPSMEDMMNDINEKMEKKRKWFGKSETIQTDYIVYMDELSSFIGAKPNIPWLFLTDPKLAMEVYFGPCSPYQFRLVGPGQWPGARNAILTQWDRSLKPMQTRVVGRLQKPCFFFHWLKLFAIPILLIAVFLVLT

[5] = molecular target: T3, human recombinant monoamine oxidase A (MAO A) (Homo sapiens, UniProt P21397); experiment: Two-step bioluminogenic MAO A substrate assay
T3 sequence (P21397 1-527): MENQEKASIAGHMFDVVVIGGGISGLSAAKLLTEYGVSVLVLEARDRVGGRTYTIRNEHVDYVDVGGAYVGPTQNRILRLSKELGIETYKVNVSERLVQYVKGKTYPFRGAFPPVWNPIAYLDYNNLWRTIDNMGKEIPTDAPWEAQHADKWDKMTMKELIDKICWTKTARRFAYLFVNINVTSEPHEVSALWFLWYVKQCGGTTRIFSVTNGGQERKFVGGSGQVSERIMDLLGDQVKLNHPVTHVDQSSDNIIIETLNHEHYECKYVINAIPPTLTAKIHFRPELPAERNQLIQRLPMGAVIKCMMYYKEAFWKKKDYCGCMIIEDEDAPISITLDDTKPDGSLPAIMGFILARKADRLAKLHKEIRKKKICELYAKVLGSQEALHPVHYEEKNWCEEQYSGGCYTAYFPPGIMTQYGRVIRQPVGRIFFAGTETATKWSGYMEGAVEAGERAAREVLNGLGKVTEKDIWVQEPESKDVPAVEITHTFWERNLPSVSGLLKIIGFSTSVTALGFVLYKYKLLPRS

[6] = molecular target: T4, equine alcohol dehydrogenase (Equus caballus, UniProt P00327); experiment: Effect of inhibitors on the conversion of luciferol by equine alcohol dehydrogenase; format: biochemical; conditions: luciferol + equine ADH + NAD+ with 10 μl inhibitor solution, 37° C., 30 min; duplicates #1, #2 (controls 1023, 1087)
T4 construct: purchased Sigma Chem. Co. A9589
T4 sequence (P00327 whole entry): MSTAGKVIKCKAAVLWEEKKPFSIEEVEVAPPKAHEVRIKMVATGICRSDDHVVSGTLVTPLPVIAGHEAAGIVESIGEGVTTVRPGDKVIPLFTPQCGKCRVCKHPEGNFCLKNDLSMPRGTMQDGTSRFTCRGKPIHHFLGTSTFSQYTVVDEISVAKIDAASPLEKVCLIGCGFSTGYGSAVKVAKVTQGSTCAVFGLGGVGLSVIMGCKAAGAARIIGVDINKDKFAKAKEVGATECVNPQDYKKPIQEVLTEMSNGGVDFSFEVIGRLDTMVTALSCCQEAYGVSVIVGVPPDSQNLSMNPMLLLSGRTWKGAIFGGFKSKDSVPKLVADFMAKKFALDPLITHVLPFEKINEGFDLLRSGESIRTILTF
Method: Trichloroethanol solution: A 0.48 ml sample of 2,2,2, trichloroethanol (Aldrich T5480-5) was dissolved in water.
Reactions were initiated by addition of 1.5 μl of luciferol solution. Upon addition of the luciferol solution, the reactions were mixed and placed at 37° C.

CYP2C19 = CYP2C19 (Homo sapiens, UniProt P33261); experiment: biochemical
CYP2C19, sequence (P33261 whole entry): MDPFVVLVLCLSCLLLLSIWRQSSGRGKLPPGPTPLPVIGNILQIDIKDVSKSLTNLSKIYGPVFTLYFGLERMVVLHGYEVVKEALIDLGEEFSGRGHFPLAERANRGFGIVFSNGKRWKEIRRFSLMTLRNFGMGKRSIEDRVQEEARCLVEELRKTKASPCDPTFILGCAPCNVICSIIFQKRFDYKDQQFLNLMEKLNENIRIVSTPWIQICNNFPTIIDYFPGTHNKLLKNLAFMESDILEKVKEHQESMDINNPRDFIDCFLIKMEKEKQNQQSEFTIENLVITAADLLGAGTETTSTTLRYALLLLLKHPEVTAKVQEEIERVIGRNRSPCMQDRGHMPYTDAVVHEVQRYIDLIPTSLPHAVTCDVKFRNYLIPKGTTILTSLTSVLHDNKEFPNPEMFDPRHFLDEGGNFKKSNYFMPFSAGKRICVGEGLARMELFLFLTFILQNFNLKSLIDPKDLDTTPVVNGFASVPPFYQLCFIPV

[7] = system: human hepatocytes (CYP3A activity)
[8] = molecular target: T5, human recombinant monoamine oxidase B (MAO B) (Homo sapiens, UniProt P27338); experiment: biochemical
T5 construct: purchased Sigma Chemical Company M-7441; host or cells: baculovirus infected insect cells (microsomes)
T5 sequence (P27338 1-520): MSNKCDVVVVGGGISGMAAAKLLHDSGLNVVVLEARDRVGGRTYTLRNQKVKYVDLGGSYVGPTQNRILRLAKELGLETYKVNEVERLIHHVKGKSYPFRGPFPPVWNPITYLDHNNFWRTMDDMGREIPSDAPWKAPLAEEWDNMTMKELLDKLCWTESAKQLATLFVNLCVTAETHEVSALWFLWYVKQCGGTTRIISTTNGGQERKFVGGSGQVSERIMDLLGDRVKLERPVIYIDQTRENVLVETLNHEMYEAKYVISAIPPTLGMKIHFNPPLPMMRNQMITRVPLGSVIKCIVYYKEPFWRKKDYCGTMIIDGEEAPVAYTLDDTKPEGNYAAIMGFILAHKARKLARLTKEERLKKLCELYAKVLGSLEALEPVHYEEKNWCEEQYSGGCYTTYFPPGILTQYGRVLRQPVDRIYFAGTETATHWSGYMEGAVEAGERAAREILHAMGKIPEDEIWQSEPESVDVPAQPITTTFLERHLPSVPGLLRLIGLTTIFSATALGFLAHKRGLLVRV

[9] = molecular target: T3, human recombinant monoamine oxidase A (MAO A); experiment: MAO A inhibition (IC50) with substrate MAO-11; format: biochemical; set-up: purchased Sigma Chemical Company M-7316; host or cells: baculovirus infected insect cells (microsomes)

Compound: O=C(O)[C@H]1CSC(c2nc3ccc(O)c(F)c3s2)=N1 [7′-fluoroluciferin]
red shift of luminescence λmax from regular luciferin [1]: approximately 21 nm
pH optima of firefly luciferase reaction [2]: ~7.5
ATP requirement of luciferase reaction [3]: requirement for ATP is much higher

signal-to-background ratio at the Km value [4]: about 8.5
MAO specificity by ratio RLUmax/Km ([5]; Table 25): more specific substrate for MAO A
signal-to-background ratio at the Km value ([5]; fit of Table 22): about 95
Compound: CNCCCOc1ccc2nc(C3=N[C@@H](C(=O)O)CS3)ccc2c1 [MAO-7, 6-(3-methylaminopropoxy)quinolinyl-luciferin]

Compound: c1cn[nH]c1 [Pyrazol, pyrazol]
Relative Light Units [6]: 516.4 Relative Light Units and 490.7 Relative Light Units

IC50 (CYP2C19): 76 µM
Compound: NNC(=O)c1ccncc1 [isoniazid]

Compound: CC(=O)N1CCN(c2ccc(OCC3COC(Cn4ccnc4)(c4ccc(Cl)cc4Cl)O3)cc2)CC1 (centres unmarked) [ketoconazole]
CYP3A-dependent luminescence in hepatocytes [7]: inhibition by ketoconazole of both basal and rifampicin-induced activity

Compound: NCCc1ccccc1 [phenethylamine]
IC50 [8]: 20 ± 2 µM
IC50 [9]: 134 ± 9 µM
